Data taken from US8420653B2, “Pyrimidine compounds and their uses” (Orchid Chemicals & Pharmaceuticals Limited, priority 2008, dated 2013).

Key:
[1] = tested on: TPA induced dermatitis; assay: Psoriasis model, TPA induced dermatitis; type: in vivo; conditions: mice, topical on the ears
Protocol: Inhibitory Activity in Psoriasis Model TPA induced dermatitis in mice was performed using the protocol described in Eur J Pharmacol 507, 253-259, 2005. Balb/c mice were acclimatized to laboratory conditions 5-7 days prior to the start of the experiment. They were randomly distributed to various groups based on body weight. The baseline ear thickness of the animal's both ears using thickness gauge was measured. For each animal 20 μl of that contains 2.5 μg of TPA was applied with help of micropipettor with disposable tips. Test compound was applied topically to both inner and outer surface of the both the ears i.e. left and right ear with acetone as control after 30 minutes 6 hours and 24 hours after application of TPA (20 μl). Ear thickness was measured after 6 and 24 hours in animals, while for ear weight ears were excised under anesthesia and weighed.

[2] = tested on: TNF-α; assay: In vitro measurement of TNF-α in human whole blood; type: cell-based
Protocol: In Vitro Measurement of TNF-α in Human Whole Blood
This assay determines the effect of test compounds on the production of TNF-α in human whole blood. Compounds were tested for their ability to inhibit the activity of TNF-α in whole blood.
Heparanised blood from a healthy human volunteer was collected and diluted with RPMI 1640 incomplete medium (1:5 dilution). Diluted blood was aliquoted into 96 well plate 170 ul/well immediately. 20 ul of the drug of different concentrations was added to the respective wells with a control. The plate was incubated in 37° C. thermo mixer at 400 rpm for 60-70 minutes. After the incubation 10 ul of the LPS (from E. coli B4) was added to get the final concentration of 1 ug/well. The plate was again incubated in the 37° C. thermo mixer at 400 rpm 120 minutes in the thermo mixer and then left in the 37° C. CO2 incubator for two more hours so that the total stimulation time is four hours. The plasma was collected carefully without disturbing the pellet at the bottom and stored at −20° C. Then TNF-α levels were estimated using the R&D systems ELISA kit duoset kit (DY210).

[3] = tested on: TNF-α; assay: LPS induced sepsis for measurement of TNF-α inhibition in mice; type: in vivo; conditions: Mus musculus; TNF alpha inhibition in mice sepsis model
Protocol: LPS Induced Sepsis for Measurement of TNF-α Inhibition in Mice
The LPS induced sepsis model in mice was performed as described by Les sekut et al (J Lab Clin Med 1994; 124, 813-20). Female Swiss albino mice were selected and the body weights were equivalent within each group. The mice were fasted for 20 hours with free access to water. The mice were dosed orally with the test compound suspended in vehicle containing 0.5% Tween 80 in 0.25% Carboxy-methylcellulose sodium salt. The control mice were administered the vehicle alone. After 30 minutes of oral dosing, mice were injected with 500 μg of Lipopolysaccharide (Escherichia coli, LPS: B4 from Siga) in phosphate buffer saline solution into the intraperitoneal cavity of the mice. After 90 minutes of LPS administration mice were bled via retro-orbital sinus puncture. Blood samples were stored overnight at 4° C. Serum samples were collected by centrifuging the samples at 4000 rpm for 15 minutes at 4° C. Immediately the serum samples were analyzed for TNF-α levels using commercially available mouse TNF-α ELISA kit (Amersham Biosciences) and assay was performed by the manufacturer instruction.
ED50 Measurement of TNF Alpha Inhibition in Mice Sepsis Model

[4] = biological target: T1, PDE4B enzyme (Homo sapiens, UniProt Q07343); assay: PDE4 assay with pure PDE4B enzyme (Calbiochem); type: biochemical
T1 construct: purchased Calbiochem
T1 sequence (Q07343 whole entry, species assumed): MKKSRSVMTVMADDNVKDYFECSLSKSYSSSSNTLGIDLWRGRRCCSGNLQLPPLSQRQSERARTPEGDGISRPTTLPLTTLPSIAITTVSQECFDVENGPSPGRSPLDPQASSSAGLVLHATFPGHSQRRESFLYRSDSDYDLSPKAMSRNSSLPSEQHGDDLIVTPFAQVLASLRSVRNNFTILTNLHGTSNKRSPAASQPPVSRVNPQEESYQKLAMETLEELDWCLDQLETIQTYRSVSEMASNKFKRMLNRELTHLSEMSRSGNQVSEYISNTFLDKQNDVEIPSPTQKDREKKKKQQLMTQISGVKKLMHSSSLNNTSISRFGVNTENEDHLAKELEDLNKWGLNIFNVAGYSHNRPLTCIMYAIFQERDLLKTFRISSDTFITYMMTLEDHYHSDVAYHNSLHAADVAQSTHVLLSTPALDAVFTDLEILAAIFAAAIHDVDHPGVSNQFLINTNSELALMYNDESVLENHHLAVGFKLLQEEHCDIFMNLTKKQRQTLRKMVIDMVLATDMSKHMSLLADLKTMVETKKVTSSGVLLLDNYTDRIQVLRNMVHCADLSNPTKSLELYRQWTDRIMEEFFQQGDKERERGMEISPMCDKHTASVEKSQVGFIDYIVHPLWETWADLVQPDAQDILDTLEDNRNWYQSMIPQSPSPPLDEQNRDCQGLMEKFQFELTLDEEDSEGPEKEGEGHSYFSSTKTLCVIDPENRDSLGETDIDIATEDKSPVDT

[5] = tested on: LPS induced neutrophilia; assay: LPS induced neutrophilia model for asthma and COPD; type: in vivo; conditions: Wistar rats, BAL 4 h after LPS
Protocol: LPS Induced Neutrophilia Model for Asthma and COPD LPS induced neutrophilia in Wistar rats was performed using the protocol described in Pulm Pharmacol & Ther 17, 3, 133-140, 2004. Male Wistar rats were acclimatized to laboratory conditions five to seven days prior to the start of the experiment. They were randomly distributed to various groups based on body weight. Except normal group all the animals were exposed to LPS 100 μg/ml for 40 min. The rats were dosed with the test compound suspended in the vehicle containing 0.25% carboxymethylcellulose before half an hour of LPS exposure. BAL was performed 4 h after LPS exposure, total cell count and DLC was done and compared with control and the standard drug. Percentage Inhibition for neutrophilia was calculated.

[6] = tested on: PDE4; assay: PDE4 activity (source human U937 cells); type: biochemical; conditions: read-out: PDE4 inhibition IC50 (nm)
Protocol: PDE4 inhibition was measured by following a literature assay procedure (Cortizo J et al., Br J. Pharmacol., 1993, 108: 562-568. The assay method involves the following conditions.
Substrate: 1.01 μM [^3H] camp+camp
Pre-Incubation Time/Temperature: 15 minutes at 25° C.
Incubation Time/Temperature. 20 minutes at 25° C.
Incubation buffer: 50 mM Tris-HCl, pH 7.5, 5 mM MgCl2
Quantitation method: Quantitation of [^3H] Adenosine
Significance criteria: ≧50% of max stimulation or inhibition

[7] = tested on: TNF-α; assay: In vitro measurement of TNF-α in human PBMC; type: cell-based
Protocol: In Vitro Measurement of TNF-α in Human Peripheral Blood Mononuclear Cells
This assay determines the effect of test compounds on the production of TNF a in human Peripheral Blood Mononuclear Cells (PBMC). Compounds were tested for their ability to inhibit the activity of TNF α in human PBMC. PBMC were isolated from blood (of healthy volunteers) using BD Vacutainer CPT™ (Cell preparation tube, BD Bio Science) and suspended in RPMI medium (Physiol. Res. 52, 593-598, 2003). The test compounds were pre-incubated with PBMC (0.5 million/incubation well) for 15 minutes at 37° C. and then stimulated with Lipopolysaccharide (Escherichia coli: B4; 1 μg/ml) for 18 hours at 37° C. in 5% CO2. The levels of TNF-α in the cell culture medium were estimated using enzyme-linked immunosorbent assay performed in a 96 well format as per the procedure of the manufacturer (Cayman Chemical, Ann Arbor, USA).

For `NS(=O)(=O)c1cccc(-c2c(-c3ccccc3)nc(C(F)(F)F)nc2N2CCOCC2)c1` [Example 98, 3-[4-Morpholin-4-yl-2-(trifluoromethyl)-6-phenyl-pyrimidin-5-yl]benzenesulfonamide], the “Psoriasis-acute TPA induced dermatitis % inhibition Ear Wt” value [1] was 11.84%, the “Psoriasis-acute TPA induced dermatitis % inhibition Ear thickness” value [1] was 41.10% and the inhibition at 1 µM ([2]; Conc. (1 μM)) was 40.6%. The inhibition at 10 µM ([2]; Conc. (10 μM)) was 62%, the ED50 [3] was 0.01 mg/kg and the inhibition at 10 µM [4] was 76.1%. The “LPS induced neutrophilia % inhibition at 10 mg/kg” value [5] was 31.73%, the IC50 [6] was 7 nM and the inhibition at 1 µM ([7]; Conc. (1 μM)) was 94.1%. For the same compound, the inhibition at 10 µM ([7]; Conc. (10 μM)) was 94.6%.
